Results on ten molecules are retold here after US20090227619A1, “Harmine derivatives, intermediates used in their preparations, preparation processes and use therefo” (priority 2003, published 2009).

Where “and” joins values, the source holds several entries; their conditions need not be identical. Identical values can stand only once. Like-named read-outs stand apart in the source and are kept apart here. A value given as a limit tells only on which side of the number the result lay.

One series concerns PLA-801. Put plainly: In vitro cytotoxicity, IC50 by MTT method, PLA-801. The format is cell-based. Put shortly:
(§1)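 MTT viability, 48 h exposure: cells 10^5/ml in RPMI1640 + 10% FBS, 37 °C/5% CO2; MTT 4 h, DMSO solubilisation, A490.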

The subject of another series is Lewis lung cancer. The following applies: comparison table 43, in vivo, Lewis lung cancer.
The subject of a further series is S180 sarcoma. The following applies: comparison table 43, in vivo, S180 sarcoma.
The next series deals with Lovo. Put plainly: In vitro cytotoxicity, IC50 by MTT method, Lovo. The class given is cell-based. Put shortly:
as §1

Another series relates to Bel-7402. Put plainly: In vitro cytotoxicity, IC50 by MTT method, Bel-7402. The class given is cell-based. In outline:
as §1
Background: Formazan colour is commonly taken as a measure of viable cells.

Series [1] deals with CT-DNA. Put plainly: UV absorption spectrum method with CT-DNA. The format is binding. The settings on record: CT-DNA 40 ug/ml, compound 20 uM, 37° C. for 2 h, OD at 260 nm. The protocol: Compounds to be tested (20 uM) were added into the PE buffer solution, and its scan curve was identified by the spectrograph at a wavelength of from 200 to 400 nm. CT-DNA (40 ug/ml) and compounds to be tested (20 uM) were added into the PE buffer solution. The mixture was cultured at 37° C. for 2 h, and its scan curve was identified by the UV spectrograph at a wavelength of from 200 to 400 nm. […] After that, the OD value at 260 nm of the scan curve of the medicaments tested and that of the CT-DNA mixture OD value at 260 nm of the scan curve were calculated and compared to determine the influences of the medicaments tested on the UV absorption spectrum of the DNA molecules.

The next series has as its system Hela. Put plainly: In vitro cytotoxicity, IC50 by MTT method, Hela. The format is cell-based. Put shortly: as §1
A further series deals with NIH3T3. Put plainly: In vitro cytotoxicity, IC50 by MTT method, NIH3T3. The format is cell-based. Put shortly:
as §1

For the next series, the system named is HepG2. Put plainly: In vitro cytotoxicity, IC50 by MTT method, HepG2. The format is cell-based, human. Put shortly:
as §1

Series [2] deals with CT-DNA. Put plainly: DNA thermal denaturation, determination of ΔTm. The format is binding. The settings on record: CT-DNA thermal denaturation; 20 uM compound; Tm of CT-DNA alone 61° C. Here is the method:
Experiments were carried out in PE buffer (1 mM Na2HPO4, 0.1 mM EDTA, pH 7.6) in a thermostatically controlled cell hold, and the quartz cuvette (1 cm path length) was heated by circulating water at a heating rate of 0.5° C./min from 25 to 95° C. Amsacrine and Doxorubicin Hydrochloride were used as standards. In all cases, the concentration of CT-DNA was 15 ug/ml. The ‘melting’ temperature Tm was taken as the mid-point of the hyperchromic transition.
ΔTm=Tm^drug-DNA complex−Tm^DNA alone
The ΔTm of each compound was calculated, Experiments were repeated three times, and an average value was calculated.

For the next series, the system named is BGC-823. Put plainly: In vitro cytotoxicity, IC50 by MTT method, BGC-823. The format is cell-based. Put shortly: as §1
Series [3] can be described thus: Solubility (physico-chemical data tables). The following applies: qualitative.
The mark [4] stands for this setting: PLA-801 cell strain, read-out: IC50 PLA-801.
Where [5] appears, read: Table 12, 3,9-disubstituted β-carboline derivatives.
The mark [6] stands for this setting: Lovo cell strain, read-out: IC50 Lovo.
Where [7] appears, read: Bel7402 cell strain, read-out: IC50 Bel7402.
The mark [8] stands for this setting: Hela cell strain, read-out: IC50 Hela.
Where [9] appears, read: NIH3T3 cell strain, read-out: IC50 NIH3T3.
The mark [10] stands for this setting: HepG2 cell strain, read-out: IC50 HepG2.
The mark [11] stands for this setting: BGC823 cell strain, read-out: IC50 BGC823.
The mark [12] stands for this setting: Table 15, 1,3,9-substituted β-carboline derivatives.
The mark [13] stands for this setting: Homo sapiens, Lovo cell strain, read-out: IC50 Lovo.
Setting [14] is: Homo sapiens, Bel-7402, Bel7402 cell strain, read-out: IC50 Bel7402.
[15] abbreviates: Homo sapiens, Hela cell strain, read-out: IC50 Hela.
The mark [16] stands for this setting: Mus musculus, NIH3T3 cell strain, read-out: IC50 NIH3T3.
Where [17] appears, read: Homo sapiens, HepG2 cell strain, read-out: IC50 HepG2.
Where [18] appears, read: Homo sapiens, BGC-823, BGC823 cell strain, read-out: IC50 BGC823.
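For Inhibition rate (%) Lewis cancer in this document: mice implanted subcutaneously in the axilla with Lewis lung tumor cells, treated starting the following day, killed roughly three weeks after implantation.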

For the molecule `COc1ccc2c(c1)[nH]c1c(C)nccc12` [Compound 1, reference compound], the IC50 (usually the point on the concentration scale where inhibition reaches its midpoint) amounted to 50 µM with PLA-801; 70 µM in the series with Lovo (Homo sapiens, LoVo); 20 µM in the series on Bel-7402 (Homo sapiens, Bel-7402); 60 µM in the series with Hela (Homo sapiens, HeLa); 60 µM in the series on NIH3T3 (Mus musculus, NIH3T3); 50 µM in the series with HepG2 (Homo sapiens, HepG2). Further, the IC50 with BGC-823 (Homo sapiens, BGC-823) came out at 70 µM. In the series with Lewis lung cancer, the “Inhibition rate (%) Lewis cancer” value came to 34.1%. The “Inhibition rate (%) S180 sarcomata” value with S180 sarcoma is reported as 15.3%. For the same molecule, the “Influence on the UV absorption of DNA” value in the series on CT-DNA [1] is “reduce the UV absorption of DNA”. Moreover, the ΔTm – broadly, the change in melting temperature against a reference sample – in the series on CT-DNA [2] is 8.5 °C.

Turning to `O=C(O)c1cc2c3ccccc3n(Cc3c(F)c(F)c(F)c(F)c3F)c2cn1` [Compound 49, 9-(2′,3′,4′,5′,6′-pentafluoro)benzyl-β-carboline-3-carboxylic acid], the IC50 in the series with PLA-801 (setting [4]) is 90 µM; in the series with Lovo (setting [6]), 10 µM; with Bel-7402 (setting [7]), 60 µM; in the series on Hela (setting [8]) it was 40 µM; in the series with NIH3T3 (setting [9]) it was 20 µM; in the series with HepG2 (setting [10]), 30 µM. The IC50 in the series on BGC-823 (setting [11]) is 40 µM. The Solubility entry in [3] (setting [5]) is reported as “soluble in DMSO”. Besides, the “Influence on the UV absorption of DNA” value with CT-DNA [1] is listed as “increase the UV absorption of DNA”.

For `O=C(Cn1c2ccccc2c2cc(C(=O)O)ncc21)c1ccccc1` [Compound 50, 9-acetophenone-β-carboline-3-carboxylic acid], the half-maximal inhibitory concentration (IC50) in the series on PLA-801 (setting [4]) came to 140 µM; in the series on Lovo (setting [6]) it was 70 µM; in the series with Bel-7402 (setting [7]) it was 140 µM; with Hela (setting [8]) it was 70 µM; in the series on NIH3T3 (setting [9]), 50 µM; in the series on HepG2 (setting [10]), 90 µM. For the same molecule, the IC50 in the series on BGC-823 (setting [11]) turned out to be 60 µM. Also, in [3] (setting [5]), the Solubility result is listed as “soluble in DMSO”.

As for `Cc1nc(C(=O)O)cc2c3ccccc3n(Cc3ccccc3)c12` [Compound 64, 9-benzyl-1-methyl-β-carboline-3-carboxylic acid], the melting point (commonly the temperature, or range, at which the solid turns liquid) is 246 to 248 °C. The IC50 in the series on PLA-801 (setting [4]) was determined as 410 µM. Also, in series [3] (setting [12]), the Solubility entry was “soluble in DMSO”. For the same molecule, the concentration for half-maximal inhibition (IC50) in the series on Lovo (setting [13]) was 200 µM. Further, the IC50 in the series on Bel-7402 (setting [14]) is 690 µM. In addition, in the series on Hela (setting [15]), the IC50 is 370 µM. The IC50 in the series with NIH3T3 (setting [16]) was 140 µM. Further, the IC50 in the series with HepG2 (setting [17]) is 280 µM. Besides, the IC50 in the series with BGC-823 (setting [18]) is 280 µM.

For the molecule `Cc1nc(C(=O)O)cc2c3ccccc3n(Cc3c(F)c(F)c(F)c(F)c3F)c12` [Compound 66, 9-(2′,3′,4′,5′,6′-pentafluoro)benzyl-1-methyl-β-carboline-3-carboxylic acid], the IC50 with PLA-801 (setting [4]) turned out to be 190 µM; in the series with Lovo (setting [6]), 80 µM; in the series on Bel-7402 (setting [7]), 120 µM; with Hela (setting [8]), 110 µM; in the series on NIH3T3 (setting [9]) it was 80 µM; in the series with HepG2 (setting [10]), 120 µM. Moreover, in the series on BGC-823 (setting [11]), the concentration for half-maximal inhibition (IC50) turned out to be 160 µM. Also, the Solubility entry in series [3] (setting [12]) is “soluble in DMSO”. Besides, the “Influence on the UV absorption of DNA” value in the series on CT-DNA [1] is reported as “increase the UV absorption of DNA”.

In the case of `Cc1nc(C(=O)O)cc2c3ccccc3n(CC(=O)c3ccccc3)c12` [Compound 67, 9-acetophenone-1-methyl-β-carboline-3-carboxylic acid], the IC50 is 2000 µM with PLA-801 (setting [4]); 1340 µM in the series on Lovo (setting [6]); more than 3000 µM in the series on Bel-7402 (setting [7]); 2480 µM in the series on Hela (setting [8]); 1460 µM in the series on NIH3T3 (setting [9]); 2230 µM in the series on HepG2 (setting [10]). Moreover, the IC50 in the series on BGC-823 (setting [11]) was 1520 µM. The Solubility result in series [3] (setting [12]) is “soluble in DMSO”.

As for `CCCc1nc(C(=O)O)cc2c3ccccc3n(Cc3ccccc3)c12` [Compound 74, 9-benzyl-1-propyl-β-carboline-3-carboxylic acid], the melting point lay in the range of 193 to 194 °C. Besides, the IC50 with PLA-801 (setting [4]) is 270 µM. Moreover, the Solubility result in series [3] (setting [12]) is reported as “soluble in DMSO”. Besides, the IC50 with Lovo (setting [13]) worked out at 140 µM. Besides, in the series with Bel-7402 (setting [14]), the IC50 is 180 µM. Moreover, the half-inhibitory concentration (IC50) in the series with Hela (setting [15]) came to 160 µM. The IC50 with NIH3T3 (setting [16]) was 160 µM. Besides, the IC50 in the series on HepG2 (setting [17]) was found to be 170 µM. In addition, in the series on BGC-823 (setting [18]), the IC50 amounted to 270 µM.

As for `Cn1c2ccccc2c2cc(C(=O)O)nc(-c3ccccc3)c21` [Compound 78, 9-methyl-1-phenyl-β-carboline-3-carboxylic acid], the melting point was 223 to 234 °C and 223 to 224 °C. The IC50 with PLA-801 (setting [4]) was determined as 650 µM. For the same molecule, the Solubility entry in [3] (setting [12]) is recorded as “soluble in DMSO”. The IC50 in the series on Lovo (setting [13]) came to 110 µM. Further, the IC50 with Bel-7402 (setting [14]) is 280 µM. In addition, in the series on Hela (setting [15]), the IC50 is 170 µM. Also, the IC50 in the series with NIH3T3 (setting [16]) turned out to be 150 µM. In addition, the IC50 in the series on HepG2 (setting [17]) amounted to 160 µM. Moreover, the IC50 with BGC-823 (setting [18]) was found to be 210 µM.

Turning to `CCn1c2ccccc2c2cc(C(=O)O)nc(-c3ccccc3)c21` [Compound 79, 9-ethyl-1-phenyl-β-carboline-3-carboxylic acid], the melting point is 194 to 195 °C. Also, the IC50 in the series with PLA-801 (setting [4]) was determined as 110 µM. Further, in [3] (setting [12]), the Solubility result is recorded as “soluble in DMSO”. Besides, in the series with Lovo (setting [13]), the IC50 is 100 µM. The IC50 with Bel-7402 (setting [14]) stood at 140 µM. Further, in the series with Hela (setting [15]), the IC50 was found to be 140 µM. The concentration for half-maximal inhibition (IC50) with NIH3T3 (setting [16]) is 120 µM. Besides, in the series with HepG2 (setting [17]), the IC50 came out at 160 µM. Moreover, the IC50 in the series on BGC-823 (setting [18]) came out at 250 µM.

For the molecule `CCCCn1c2ccccc2c2ccncc21` [Compound 83, 9-n-butyl-β-carboline], the melting point is 78 to 79 °C. Further, in the series with PLA-801 (setting [4]), the concentration for half-maximal inhibition (IC50) is 130 µM. The IC50 in the series with Lovo (setting [13]) stood at 130 µM. In the series on Bel-7402 (setting [14]), the IC50 was determined as 160 µM. Besides, the “Influence on the UV absorption of DNA” value in the series with CT-DNA [1] is “reduce the UV absorption of DNA”. Moreover, the IC50 with Hela (setting [15]) is 90 µM. Moreover, in the series on NIH3T3 (setting [16]), the IC50 worked out at 80 µM. Moreover, the IC50 in the series on HepG2 (setting [17]) turned out to be 100 µM. For the same molecule, in the series with CT-DNA [2], the ΔTm amounted to 2.4 °C. For the same molecule, the IC50 with BGC-823 (setting [18]) was determined as 100 µM.
